For the series the following is noted: Liquid, Ebulliometric method (Recirculating still).

± gives the expanded uncertainty stated by the source.

Usually vapor or sublimation pressure stands for the pressure of vapour in equilibrium with the condensed phase.

Turning to `O=Cc1ccco1` [2-furaldehyde], the “vapor or sublimation pressure” value (394.7 K) was determined as 30 ± 0.2 kPa.
On to `CC1CCC(=O)O1` (configuration not stated) [γ-valerolactone], for which the “vapor or sublimation pressure” value turned out to be 29.9 ± 0.2 kPa (434 K); 30 ± 0.2 kPa (434.1 K); 40.6 ± 0.2 kPa (444.3 K); 61.7 ± 0.2 kPa (459.3 K); 80 ± 0.2 kPa (469.3 K); 102.6 ± 0.3 kPa (479.4 K).

(Values after the NIST ThermoML archive (doi:10.1021/acs.jced.8b00451).)
